Like-named read-outs stand apart in the source and are kept apart here. Starred links: 1 amine or outer side, 2 acyl side, 3 side chain; linkers in the order of their positions; H or OH if unused. Non-standard residues stand in square brackets, D forms with d. Residues, ends and D or L forms follow the SMILES beside them. *: point of attachment. Ala(piperidin-4-yl) = O=C([C@H](CC1CCN([*:3])CC1)N[*:1])[*:2]; Malonyl(2,2-Me2,histaminyl) = CC(C)(C(=O)NCCc1cnc[nH]1)C(=O)*; dBip = N[C@H](Cc1ccc(-c2ccccc2)cc1)C(=O)O; Oic = O=C(O)[C@@H]1C[C@@H]2CCCC[C@@H]2N1; Phe(4-Br) = N[C@@H](Cc1ccc(Br)cc1)C(=O)O; hArg = N=C(N)NCCCC[C@H](N)C(=O)O; 3Pal = N[C@@H](Cc1cccnc1)C(=O)O; Pip = O=C(O)[C@@H]1CCCCN1; Nle = CCCC[C@H](N)C(=O)O; Aib = CC(C)(N)C(=O)O
Experiments:
human Apelin receptor [1] = biological target: T1, human Apelin receptor (Homo sapiens, UniProt P35414); assay: cAMP accumulation assay (HTRF), functional agonism of human Apelin receptors; assay type: cell-based; conditions: for Emax: CHO
T1 sequence (P35414 1-380): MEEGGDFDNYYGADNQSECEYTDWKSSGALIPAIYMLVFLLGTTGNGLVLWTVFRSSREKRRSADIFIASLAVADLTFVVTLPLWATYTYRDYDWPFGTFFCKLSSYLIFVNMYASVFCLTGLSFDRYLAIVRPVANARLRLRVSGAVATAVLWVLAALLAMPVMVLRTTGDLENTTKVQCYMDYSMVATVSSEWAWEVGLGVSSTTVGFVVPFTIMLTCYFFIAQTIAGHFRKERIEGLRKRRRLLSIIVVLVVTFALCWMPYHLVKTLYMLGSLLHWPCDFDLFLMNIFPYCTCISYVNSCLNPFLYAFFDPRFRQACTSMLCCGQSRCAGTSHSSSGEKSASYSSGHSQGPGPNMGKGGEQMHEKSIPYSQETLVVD
Description: cAMP functional assay. cAMP production was quantified using the Homogeneous Time-Resolved Fluorescence (HTRF) cAMP dynamic-2 assay (Cisbio, France).

human Apelin receptor [2] = biological target: T2, human Apelin receptor (Homo sapiens, UniProt P35414); assay: β-arrestin accumulation assay, functional agonism of human Apelin receptors; assay type: cell-based
T2 construct: host or cells: CHO-K1 cells
Method: β-arrestin assay. […] After 16 h incubation at 37° C. media was removed and cells were incubated at 37° C. for 90 min in serum free media containing increasing concentrations of test agonist. The assay reaction was stopped by adding detection reagent (DiscoveRx) and incubation for 60 min in the dark. Levels of receptor activation were then measured on a PheraStar fluorescence plate reader (BMG LabTech) and EC50 values were determined using Graphpad Prism.
T2 sequence (P32121 whole entry partner, one chain of several): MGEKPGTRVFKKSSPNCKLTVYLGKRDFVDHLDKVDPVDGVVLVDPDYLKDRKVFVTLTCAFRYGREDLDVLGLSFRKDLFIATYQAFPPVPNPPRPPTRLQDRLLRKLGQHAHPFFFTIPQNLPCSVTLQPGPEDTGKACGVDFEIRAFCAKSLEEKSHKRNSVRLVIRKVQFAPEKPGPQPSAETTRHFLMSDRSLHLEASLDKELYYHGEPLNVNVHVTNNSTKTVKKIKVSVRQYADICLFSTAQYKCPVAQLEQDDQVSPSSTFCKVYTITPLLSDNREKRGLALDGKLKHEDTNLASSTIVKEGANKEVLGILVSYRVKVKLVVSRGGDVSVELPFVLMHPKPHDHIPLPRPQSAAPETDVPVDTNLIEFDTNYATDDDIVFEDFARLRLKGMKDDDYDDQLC

[3] = Human Apelin agonist cAMP assay, CHO cells stably expressing the human Apelin receptor, 3 uM forskolin
[4] = pEC50, Human Apelin agonist cAMP assay, CHO cells stably expressing the human Apelin receptor, 3 uM forskolin

SMILES	Emax (human Apelin receptor [1]; [3]) [%]	EC50 (human Apelin receptor [1]; [4]) [nM]	EC50 (human Apelin receptor [2]) [nM]	Emax (human Apelin receptor [1]; read-out: Emax) [%]	EC50 (human Apelin receptor [1]; read-out: pEC50 (converted)) [nM]
CC(C)C[C@H](NC(=O)[C@@H](CCCNC(=N)N)NC(=O)[C@@H]1CCCCN1C(=O)[C@H](CCCCNC(=N)N)NC(=O)[C@H](CCC(N)=O)NC(=O)[C@@H](CCCNC(=N)N)NC(=O)C(C)(C)C(=O)NCCc1cnc[nH]1)C(=O)NC(C)(C)C(=O)N[C@@H](Cc1c[nH]cn1)C(=O)N[C@@H](CC1CCNCC1)C(=O)N[C@@H](C)C(=O)N1[C@H](C(=O)N[C@@H](Cc2ccc(Br)cc2)C(=O)N2CCC[C@H]2C(=O)N[C@H](Cc2ccc(-c3ccccc3)cc2)C(=O)O)C[C@@H]2CCCC[C@@H]21 [Example 29] ({Malonyl(2,2-Me2,histaminyl)}-[dR]Q[hArg][Pip][dR]L[Aib]H[Ala(piperidin-4-yl)]A[Oic][Phe(4-Br)]P[dBip]-OH)	69.7	2.51	> 10000		
CC(C)C[C@H](NC(=O)[C@@H](CCCNC(=N)N)NC(=O)[C@@H]1CCCCN1C(=O)[C@H](CCCNC(=N)N)NC(=O)[C@H](CCC(N)=O)NC(=O)[C@@H](CCCNC(=N)N)NC(=O)C(C)(C)C(=O)NCCc1cnc[nH]1)C(=O)NC(C)(C)C(=O)N[C@@H](Cc1c[nH]cn1)C(=O)N[C@@H](CC1CCNCC1)C(=O)NCC(=O)N1[C@H](C(=O)N[C@@H](Cc2ccc(Br)cc2)C(=O)N2CCC[C@H]2C(=O)N[C@H](Cc2ccc(-c3ccccc3)cc2)C(=O)O)C[C@@H]2CCCC[C@@H]21 [Example 30] ({Malonyl(2,2-Me2,histaminyl)}-[dR]QR[Pip][dR]L[Aib]H[Ala(piperidin-4-yl)]G[Oic][Phe(4-Br)]P[dBip]-OH)	106	5.01	> 10000		
CC(C)C[C@H](NC(=O)[C@@H](CCCNC(=N)N)NC(=O)[C@@H]1CCCCN1C(=O)[C@H](CCCCNC(=N)N)NC(=O)[C@H](CCC(N)=O)NC(=O)[C@@H](CCCNC(=N)N)NC(=O)C(C)(C)C(=O)NCCc1cnc[nH]1)C(=O)NC(C)(C)C(=O)N[C@@H](Cc1cccnc1)C(=O)N[C@@H](CC1CCNCC1)C(=O)NCC(=O)N1[C@H](C(=O)N[C@@H](Cc2ccc(Br)cc2)C(=O)N2CCC[C@H]2C(=O)N[C@H](Cc2ccc(-c3ccccc3)cc2)C(=O)O)C[C@@H]2CCCC[C@@H]21 [Example 31] ({Malonyl(2,2-Me2,histaminyl)}-[dR]Q[hArg][Pip][dR]L[Aib][3Pal][Ala(piperidin-4-yl)]G[Oic][Phe(4-Br)]P[dBip]-OH)			> 10000	75.4	10
CCCC[C@H](NC(=O)[C@@H]1C[C@@H]2CCCC[C@@H]2N1C(=O)CNC(=O)[C@H](CC1CCNCC1)NC(=O)[C@H](Cc1ccc(Br)cc1)NC(=O)C(C)(C)NC(=O)[C@H](CC(C)C)NC(=O)[C@@H](CCCNC(=N)N)NC(=O)[C@@H]1CCCN1C(=O)[C@H](CCCCNC(=N)N)NC(=O)[C@H](CCC(N)=O)NC(=O)[C@@H](CCCNC(=N)N)NC(=O)C(C)(C)C(=O)NCCc1cnc[nH]1)C(=O)N1CCC[C@H]1C(=O)N[C@H](Cc1ccc(-c2ccccc2)cc1)C(=O)O [Example 33] ({Malonyl(2,2-Me2,histaminyl)}-[dR]Q[hArg]P[dR]L[Aib][Phe(4-Br)][Ala(piperidin-4-yl)]G[Oic][Nle]P[dBip]-OH)	63	25.1	> 10000		
CCCC[C@H](NC(=O)[C@@H]1C[C@@H]2CCCC[C@@H]2N1C(=O)CNC(=O)[C@H](CC1CCNCC1)NC(=O)[C@H](Cc1ccc(Br)cc1)NC(=O)C(C)(C)NC(=O)[C@H](CC(C)C)NC(=O)[C@H](CCCNC(=N)N)NC(=O)[C@@H]1CCCN1C(=O)[C@@H](CCCNC(=N)N)NC(=O)[C@H](CCC(N)=O)NC(=O)[C@@H](CCCNC(=N)N)NC(=O)C(C)(C)C(=O)NCCc1cnc[nH]1)C(=O)N1CCC[C@H]1C(=O)N[C@H](Cc1ccc(-c2ccccc2)cc1)C(=O)O [Example 34] ({Malonyl(2,2-Me2,histaminyl)}-[dR]Q[dR]PRL[Aib][Phe(4-Br)][Ala(piperidin-4-yl)]G[Oic][Nle]P[dBip]-OH)	60.6	25.1	> 10000		
CC(C)C[C@H](NC(=O)[C@H](CCCNC(=N)N)NC(=O)[C@@H]1CCCN1C(=O)[C@@H](CCCNC(=N)N)NC(=O)[C@H](CCC(N)=O)NC(=O)[C@@H](CCCNC(=N)N)NC(=O)C(C)(C)C(=O)NCCc1cnc[nH]1)C(=O)NC(C)(C)C(=O)N[C@@H](Cc1ccc(Br)cc1)C(=O)N[C@@H](CC1CCNCC1)C(=O)NCC(=O)N1[C@H](C(=O)N[C@@H](Cc2ccccc2)C(=O)N2CCC[C@H]2C(=O)N[C@H](Cc2ccc(-c3ccccc3)cc2)C(=O)O)C[C@@H]2CCCC[C@@H]21 [Example 35] ({Malonyl(2,2-Me2,histaminyl)}-[dR]Q[dR]PRL[Aib][Phe(4-Br)][Ala(piperidin-4-yl)]G[Oic]FP[dBip]-OH)	35.3	63.1	> 10000		
